Test results: US20260374809A1, “COMPOUNDS USEFUL FOR THE TREATMENT AND/OR CARE OF THE SKIN, HAIR, NAILS AND/OR MUCOUS MEMBRANES” (Lubrizol Advanced Materials, Inc., priority 2022, published 2026)
Where a SMILES comes first, the peptide text is derived from it.

What was measured:
[1] = system: Musclebind Like Protein 1 (MBNL1); experiment: MBNL1 protein in human dermal fibroblasts (HDFa), immunofluorescence; format: cell-based; details: HDFa cells; for % Fold induction (FI) (MEAN ± SEM), MBNL1 intensity: 24 hours, basal control = 100; for % MME (MEAN ± SEM), comparative MBNL1 intensity with respect to electrical stimulation: MES = 100, control = 0
Method: Musclebind Like Protein 1 (MBNL1) in Human Dermal Fibroblasts (HDF)
The aim of this study was to evaluate the increase of MBNL1 protein in human skin fibroblasts after electrical stimulation, mimicking a microcurrent-like treatment. Topical products able to increase MBNL1 protein amount in fibroblast cells, in a similar way to the microcurrent-like treatment, could induce the same antiaging benefits on the skin avoiding the side-effects of physical microcurrent treatment
Cells were seeded at 100.000 cells/well in 12-well plates over sterile glass slides and incubated at 37 °C, 5% CO2 for 48 hours. After that, electrical stimulation was performed. Glass slides were transferred to 6-well plates and were electro-stimulated (1.5V) for 1 hour using a C-dish device (IonOptix™) at room temperature. An identical 6-well plate with non-stimulated cells were incubated at room temperature for 1 hour. After electrostimulation, glass slides were transferred again to a 12-well plate and incubated at 37 °C, 5% CO2 for 24 hours. Three different replicates were used for each condition.
Cells were seeded at 8.000 cells/well in 96-well plates and incubated at 37 °C, 5% CO2 for 48 hours. After the incubation time, cells were treated with PEP-1 (H-Leu-Pro-Val-Thr-OH) at 0.01 mg/ml, 0.1 mg/ml and 0.5 mg/ml for 24 hours. Cells incubated with medium alone were used as a control. Three replicates were carried out for each condition.
After 24 hours of incubation, cells were washed two times with phosphate buffered saline (PBS), fixed with 4% PFA (paraformaldehyde solution) for 15 minutes and washed again two times. After that, cells were permeabilized with 1% X-Triton solution for 15 minutes and blocked with 5% bovine serum albumin (BSA) solution for 1 hour. Cells were incubated with 1/20 dilution of primary antibody against MBNL1 protein (Sigma) in 5% BSA solution for 2 hours. After the incubation time, cells were washed and incubated with 1/200 dilution of secondary antibody (AlexFluor™ 488) in 5% BSA solution for 1 hour. Finally, cells were washed 3 times and stained with 4′,6-Diamidine-2′-phenylindole dihydrochloride (DAPI) mount solution for nuclei detection. MBNL1 protein quantification were measured as fluorescence intensity of MBNL1 normalized by the number of nuclei for each condition using a confocal microscope (Operetta® confocal microscope, PerkinElmer Inc) using Alexa 488 Green channel (Ex: 460-490 nm/Em: 500-550 nm). Results are expressed as an MBNL1 level that is relative to that of the control condition.
At least, three independent experiments were analyzed in this assay.
Results were calculated using the following formula: […]
For comparative purposes, the effect of the peptide was compared with that of MES. The effect was calculated as follows: […]

[2] = system: Human dermal fibroblast (HDF); experiment: Collagen contraction assay with human dermal fibroblasts in collagen gel; format: cell-based; details: 0.01 mg/ml, 24 h post detachment, without MES; basal control = 100.0, MES = 144.4
Excerpt: It is known that a remarkable change in the mechanical properties of the skin with aging is due to reduced contractile capacity as well as reduced migration activity of fibroblasts. Healthy fibroblasts induce contraction of the collagen network through physical interactions with collagen fibers. The collagen network is essential for maintaining the firmness of the skin. The collagen contraction assay is a well-known experimental approach to measuring the cell-induced contraction of the extracellular matrix. In this assay, the capacity of fibroblasts, embedded in a collagen-based gel, to reduce the gel diameter is evaluated.
By improving the contractile forces, the mechanical tension can be improved, which can be associated to “lifting” effect at the scale of fibroblasts.
The microcurrent system was built by coupling gold electrodes (in order to avoid medium oxidation leading to cell death when current goes through) to opposite sides of 60 mm Petri dishes (separated by 4 cm). When a voltage is applied, an electric field generates between opposite positive and negative poles and current passes through the culture. During the stimulation time (2 hours), each of the 60 mm Petri dishes is connected to a voltage source that allows regulating the amount of current that passes through each of them. For these experiments, a […] current (which corresponds to approx. 67 mV/mm) was used.
Human dermal fibroblast (HDF) cell culture and expansion: Cells were thawed in T75 flasks and the growth medium was changed every 2 days of cell culture. After 7 days, cells were expanded to obtain a total amount of 7×10^6 cells to be used in the experiments.
Once finished the expansion, cultures are trypsinized and seeded at 3×10^5 cells/60 mm Petri up to a total of 10 dishes per replicate. These ten dishes correspond to one experiment (Control/-MES vs+MES) at a specific concentration. Peptide treatment was performed at 0.01 mg/ml.
After an overnight (O/N) incubation to allow cell attachment, each Petri dish is treated at the corresponding concentration with 4 ml of specific medium for a total of 24 hours in both conditions (without MES and with MES). Peptide treatment on the dishes that are not stimulated with microcurrent is initiated 2 hours in advance, and their passage into 3D cultures occurs at the same time as the microcurrent stimulation of the other dishes. […]
Each 3D culture is prepared by mixing collagen solution with the culture medium corresponding to each of the conditions (without peptide or with peptide). […] Images of collagen gel diameter are taken of each well at 24 hours post detachment and analyzed by ImageJ. […]
[formula] • An initial area is stablished. […] Area t=0 gel […]1.86 cm^2 (Area of a well in a 24-well plate) • Quantification of Area at t=x; Ax. […]

For `CC(C)C[C@H](N)C(=O)N1CCC[C@H]1C(=O)N[C@H](C(=O)N[C@H](C(=O)O)[C@@H](C)O)C(C)C` [PEP-1, H-Leu-Pro-Val-Thr-OH] (H-LPVT-OH), the “% Fold induction (FI) (MEAN ± SEM), MBNL1 intensity” value (“% Fold induction (FI) (MEAN ± SEM)” for short) ([1]; 0.01 mg/ml) was 106.66 ± 2.65%, the “% MME (MEAN ± SEM), comparative MBNL1 intensity with respect to electrical stimulation” value (“% MME (MEAN ± SEM)” for short) ([1]; 0.01 mg/ml) was 52.73 ± 2.65% and the “% Fold induction (FI) (MEAN ± SEM)” value ([1]; 0.1 mg/ml) was 107.67 ± 1.62%. The “% MME (MEAN ± SEM)” value ([1]; 0.1 mg/ml) was 60.73 ± 1.62%, the “% Fold induction (FI) (MEAN ± SEM)” value ([1]; 0.5 mg/ml) was 109.46 ± 2.68% and the “% MME (MEAN ± SEM)” value ([1]; 0.5 mg/ml) was 74.90 ± 2.68%. For the same compound, the “Collagen contraction, MEAN ± SEM” value [2] was 137.5 ± 7.8%.
